US11912699B2, “Tau-protein targeting compounds and associated” (Arvinas Operations, Inc., priority 2019, dated 2024)
Structures can show the parent of a compound that is named as a salt.

target: T1, Tau P301L (Homo sapiens, UniProt P10636, P618L); assay: In vitro tau degradation assay in CHOK1 Tau P301L cells (sarkosyl insoluble tau, WES); assay type: cell-based; conditions: CHO-K1; remaining tau protein in sarkosyl insoluble pellet; CHOK1 Tau P301L cells treated 48 hours with test compound at 1 μM, doxycycline removed for the last 24 hours; relative to DMSO doxycycline control; read-out: Tau Protein Degradation effect at 1 μM
T1 construct: expressed in transfected cells
T1 sequence (P10636 1-441 isoform P10636-8 P301L): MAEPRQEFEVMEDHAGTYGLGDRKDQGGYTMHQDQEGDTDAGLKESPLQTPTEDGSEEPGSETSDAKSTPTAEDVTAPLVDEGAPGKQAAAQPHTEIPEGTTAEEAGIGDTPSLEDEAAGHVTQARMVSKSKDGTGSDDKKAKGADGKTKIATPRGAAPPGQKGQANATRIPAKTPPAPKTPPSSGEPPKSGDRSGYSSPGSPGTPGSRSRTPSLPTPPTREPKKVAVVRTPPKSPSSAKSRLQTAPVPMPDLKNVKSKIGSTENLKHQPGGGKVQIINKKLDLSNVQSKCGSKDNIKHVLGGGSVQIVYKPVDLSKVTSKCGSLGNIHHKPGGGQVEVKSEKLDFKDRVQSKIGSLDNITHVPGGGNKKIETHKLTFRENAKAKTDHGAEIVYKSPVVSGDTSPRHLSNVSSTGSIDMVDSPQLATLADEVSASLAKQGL
Method in brief: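 T-Rex CHOK1 clone D1 with doxycycline-inducible (1 μg/ml) Tau P301L treated 48 h with compound at 1 μM, doxycycline removed for the final 24 h. Sarkosyl-insoluble tau quantified by WES capillary electrophoresis with Tau1 antibody, expressed relative to DMSO doxycycline control and binned as ≤50% or >50% remaining.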

Row | Structure (SMILES) | remaining activity at 1 µM [%]
1 | Cn1c2ccncc2c2ccc(-c3ccc(OC4CC5(C4)CN(C(=O)CN4CCC(OC6CN(c7ccc8c(c7)C(=O)N(C7CCC(=O)NC7=O)C8=O)C6)CC4)C5)nc3)cc21 (stereo not drawn) [Compound 462, 2-(2,6-dioxopiperidin-3-yl)-5-(3-((1-(2-(6-((5-(5-methyl-5H-pyrido[4,3-b]indol-7-yl)pyridin-2-yl)oxy)-2-azaspiro[3.3]heptan-2-yl)-2-oxoethyl)piperidin-4-yl)oxy)azetidin-1-yl)isoindoline-1,3-dione] | > 50
2 | Cc1ccc(-c2cn3ccc(N(C)CCOCCOCCOc4ccc5c(c4)C(=O)N(C4CCC(=O)NC4=O)C5=O)cc3n2)cc1 (stereo not drawn) [Compound 463, 2-(2,6-dioxopiperidin-3-yl)-5-(2-(2-(2-(methyl(2-(p-tolyl)imidazo[1,2-a]pyridin-7-yl)amino)ethoxy)ethoxy)ethoxy)isoindoline-1,3-dione] | < 50
3 | Cn1c2ccncc2c2ccc(-c3ccc(OC4CC5(C4)CN(C(=O)CC4CCN(CC6CN(c7ccc8c(c7)C(=O)N(C7CCC(=O)NC7=O)C8=O)C6)CC4)C5)nc3)cc21 (stereo not drawn) [Compound 472, 2-(2,6-dioxopiperidin-3-yl)-5-(3-((4-(2-(6-((5-(5-methyl-5H-pyrido[4,3-b]indol-7-yl)pyridin-2-yl)oxy)-2-azaspiro[3.3]heptan-2-yl)-2-oxoethyl)piperidin-1-yl)methyl)azetidin-1-yl)isoindoline-1,3-dione] | < 50
4 | O=C1CCC(N2C(=O)c3ccc(OCCN4CC5(C4)CN(C[C@H]4C[C@H](Oc6ccc(-c7ccn8c(n7)nc7ccccc78)cn6)C4)C5)cc3C2=O)C(=O)N1 (stereo partly drawn) [Compound 473, 5-(2-(6-(((1r,3r)-3-((5-(benzo[4,5]imidazo[1,2-a]pyrimidin-2-yl)pyridin-2-yl)oxy)cyclobutyl)methyl)-2,6-diazaspiro[3.3]heptan-2-yl)ethoxy)-2-(2,6-dioxopiperidin-3-yl)isoindoline-1,3-dione] | < 50
5 | N#Cc1cc(-c2ccc3c4cnccc4n(C(F)F)c3c2)cnc1N1CCC(CCN2CCN(c3ccc4c(c3)CN(C3CCC(=O)NC3=O)C4=O)CC2)CC1 (stereo not drawn) [Compound 475, 5-(5-(difluoromethyl)-5H-pyrido[4,3-b]indol-7-yl)-2-(4-(2-(4-(2-(2,6-dioxopiperidin-3-yl)-1-oxoisoindolin-5-yl)piperazin-1-yl)ethyl)piperidin-1-yl)nicotinonitrile] | > 50
6 | Cn1c2ccncc2c2ccc(-c3ccc(O[C@H]4C[C@H](CN5CCC(CCOc6ccc7c(c6)C(=O)N(C6CCC(=O)NC6=O)C7=O)CC5)C4)nc3)cc21 (stereo partly drawn) [Compound 478, 2-(2,6-dioxopiperidin-3-yl)-5-(2-(1-(((1r,3r)-3-((5-(5-methyl-5H-pyrido[4,3-b]indol-7-yl)pyridin-2-yl)oxy)cyclobutyl)methyl)piperidin-4-yl)ethoxy)isoindoline-1,3-dione] | > 50
7 | Nc1cccc2cnc(-n3ccc4cc(N5CCC(CCN6CCN(c7ccc8c(c7)C(=O)N(C7CCC(=O)NC7=O)C8=O)CC6)CC5)ncc43)cc12 (stereo not drawn) [Compound 480, 5-[4-(2-[1-[1-(5-aminoisoquinolin-3-yl)pyrrolo[2,3-c]pyridin-5-yl]piperidin-4-yl]ethyl)piperazin-1-yl]-2-(2,6-dioxopiperidin-3-yl)isoindole-1,3-dione] | > 50
8 | Cn1c2ccncc2c2ccc(-c3ccc(O[C@H]4C[C@H](OC5CCN(c6ccc7c(c6)C(=O)N(C6CCC(=O)NC6=O)C7=O)CC5)C4)nc3)cc21 (stereo partly drawn) [Compound 493, 2-(2,6-dioxopiperidin-3-yl)-5-(4-((1r,3r)-3-((5-(5-methyl-5H-pyrido[4,3-b]indol-7-yl)pyridin-2-yl)oxy)cyclobutoxy)piperidin-1-yl) isoindoline-1,3-dione] | < 50
9 | Cn1c2ccncc2c2ccc(C3CCN([C@H]4C[C@@H](OC5CCN(CCOc6ccc7c(c6)C(=O)N(C6CCC(=O)NC6=O)C7=O)CC5)C4)CC3)cc21 (stereo partly drawn) [Compound 515, 2-(2,6-dioxopiperidin-3-yl)-5-(2-(4-((1s,3s)-3-(4-(5-methyl-5H-pyrido[4,3-b]indol-7-yl)piperidin-1-yl)cyclobutoxy)piperidin-1-yl)ethoxy) isoindoline-1,3-dione] | < 50

The remaining lines, values ahead:

Row | remaining activity at 1 µM [%] | Structure (SMILES)
10 | > 50 | O=C1CCC(N2C(=O)c3ccc(OCCN4CCC(OC5CN(c6ncc(-c7ccn8c(n7)nc7ccccc78)cc6C(F)(F)F)C5)CC4)cc3C2=O)C(=O)N1 (stereo not drawn) [Compound 483, 5-(2-(4-((1-(5-(benzo[4,5]imidazo[1,2-a]pyrimidin-2-yl)-3-(trifluoromethyl)pyridin-2-yl)azetidin-3-yl)oxy)piperidin-1-yl)ethoxy)-2-(2,6-dioxopiperidin-3-yl)isoindoline-1,3-dione]
11 | < 50 | Cn1c2ccncc2c2ccc(-c3ccc(O[C@H]4C[C@H](CN5CCC(CC6CCN(c7ccc8c(c7)C(=O)N(C7CCC(=O)NC7=O)C8=O)CC6)CC5)C4)nc3)cc21 (stereo partly drawn) [Compound 485, 2-(2,6-dioxopiperidin-3-yl)-5-(4-((1-(((1r,3r)-3-((5-(5-methyl-5H-pyrido[4,3-b]indol-7-yl)pyridin-2-yl)oxy)cyclobutyl)methyl)piperidin-4-yl)methyl)piperidin-1-yl)isoindoline-1,3-dione]
12 | < 50 | O=C1CCC(N2C(=O)c3ccc(N4CCN(CCC5CCN(c6ncc(-c7ccc8c9cnccc9n(C(F)F)c8c7)cc6C(F)(F)F)CC5)CC4)cc3C2=O)C(=O)N1 (stereo not drawn) [Compound 489, 5-[4-[2-[1-[5-[5-(difluoromethyl)pyrido[4,3-b]indol-7-yl]-3-(trifluoromethyl)-2-pyridyl]-4-piperidyl]ethyl]piperazin-1-yl]-2-(2,6-dioxo-3-piperidyl)isoindoline-1,3-dione trifluroacetate]
13 | < 50 | O=C1CCC(N2C(=O)c3ccc(N4CCN(CC5CCN(c6ncc(-c7ccc8c9cnccc9n(C(F)F)c8c7)cc6C(F)(F)F)CC5)CC4)cc3C2=O)C(=O)N1 (stereo not drawn) [Compound 494, 5-(4-((1-(5-(5-(difluoromethyl)-5H-pyrido[4,3-b]indol-7-yl)-3-(trifluoromethyl)pyridin-2-yl)piperidin-4-yl)methyl)piperazin-1-yl)-2-(2,6-dioxopiperidin-3-yl)isoindoline-1,3-dione]
14 | < 50 | Cn1c2ccncc2c2ccc(C3CCN(CCC4CCN(c5ccc6c(c5)C(=O)N(C5CCC(=O)NC5=O)C6=O)CC4)CC3)cc21 (stereo not drawn) [Compound 498, 2-(2,6-dioxopiperidin-3-yl)-5-(4-(2-(4-(5-methyl-5H-pyrido[4,3-b]indol-7-yl)piperidin-1-yl)ethyl)piperidin-1-yl)isoindoline-1,3-dione]
15 | < 50 | Cn1c2ccncc2c2ccc(C3CCN(CCC4CCN(CC5CCN(c6ccc7c(c6)C(=O)N(C6CCC(=O)NC6=O)C7=O)CC5)CC4)CC3)cc21 (stereo not drawn) [Compound 502, 2-(2,6-dioxopiperidin-3-yl)-5-(4-((4-(2-(4-(5-methyl-5H-pyrido[4,3-b]indol-7-yl)piperidin-1-yl)ethyl)piperidin-1-yl)methyl)piperidin-1-yl)isoindoline-1,3-dione]
16 | < 50 | Cn1c2ccncc2c2ccc(-c3ccc(C4CCN(CCC5CCN(c6ccc7c(c6)C(=O)N(C6CCC(=O)NC6=O)C7=O)CC5)CC4)nc3)cc21 (stereo not drawn) [Compound 508, 2-(2,6-dioxopiperidin-3-yl)-5-(4-(2-(4-(5-(5-methyl-5H-pyrido[4,3-b]indol-7-yl)pyridin-2-yl)piperidin-1-yl)ethyl)piperidin-1-yl)isoindoline-1,3-dione]
17 | < 50 | CN(C)c1cccc2cnc(-n3ccc4cc(N5CCC(CCN6CCN(c7ccc8c(c7)C(=O)N(C7CCC(=O)NC7=O)C8=O)CC6)CC5)ncc43)cc12 (stereo not drawn) [Compound 512, 5-(4-(2-(1-(1-(5-(dimethylamino)iso-quinolin-3-yl)-1H-pyrrolo[2,3-c]pyridin-5-yl)piperidin-4-yl)ethyl)piperazin-1-yl)-2-(2,6-dioxopiperidin-3-yl)isoindoline-1,3-dione]
18 | < 50 | O=C1CCC(N2C(=O)c3ccc(N4CCN(CCC5CCN(c6ncc(-c7ccc8c9cnccc9n(C(F)F)c8c7)cn6)CC5)CC4)cc3C2=O)C(=O)N1 (stereo not drawn) [Compound 514, 5-(4-(2-(1-(5-(5-(difluoromethyl)-5H-pyrido[4,3-b]indol-7-yl)pyrimidin-2-yl)piperidin-4-yl)ethyl)piperazin-1-yl)-2-(2,6-dioxopiperidin-3-yl)isoindoline-1,3-dione]
19 | < 50 | O=C1CCC(N2C(=O)c3ccc(N4CCN(CCC5CCN(CCCn6c7ccccc7c7cnccc76)CC5)CC4)cc3C2=O)C(=O)N1 (stereo not drawn) [Compound 527, 5-(4-(2-(1-(3-(5H-pyrido[4,3-b]indol-5-yl)propyl)piperidin-4-yl)ethyl)piperazin-1-yl)-2-(2,6-dioxopiperidin-3-yl)isoindoline-1,3-dione]
20 | < 50 | O=C1CCC(N2C(=O)c3ccc(N4CCN(CCC5CCN(c6ncc(-c7ccc8c9cnccc9n(C(F)F)c8c7)cc6F)CC5)CC4)cc3C2=O)C(=O)N1 (stereo not drawn) [Compound 532, 5-[4-[2-[1-[5-[5-(difluoromethyl)pyrido[4,3-b]indol-7-yl]-3-fluoro-2-pyridyl]-4-piperidyl]ethyl]piperazin-1-yl]-2-(2,6-dioxo-3-piperidyl)isoindoline-1,3-dione trifluoroacetate]
21 | < 50 | Cn1c2ccncc2c2ccc(C#CC3CCN(CCN4CCN(c5ccc6c(c5)C(=O)N(C5CCC(=O)NC5=O)C6=O)CC4)CC3)cc21 (stereo not drawn) [Compound 533, 2-(2,6-dioxopiperidin-3-yl)-5-(4-(2-(4-((5-methyl-5H-pyrido[4,3-b]indol-7-yl)ethynyl)piperidin-1-yl)ethyl)piperazin-1-yl)isoindoline-1,3-dione]
